The source of these data is PubChem BioAssay (NCI).

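Step 1: Grow cells in 96-well plates. Step 2: Expose to compound for 48 hours at 5 concentrations. Step 3: Interpolate endpoints linearly; if unreached, use highest concentration. Abbreviation: GI50, concentration required for 50% inhibition of growth. At the TGI there is no net growth.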 Where a SMILES comes first, the peptide text is derived from it. [ ]: non-standard residue; d: D form. The star is where a group is joined. NMeF = CN[CH](Cc1ccccc1)C(=O)O; NMeV = CN[CH](C(=O)O)C(C)C; Boc = CC(C)(C)OC(=O)*

Holding throughout (test): NCI tumour cell line growth inhibition, 48 h
Assay [1] relates to A498 renal.
Assay [2] concerns HCT-116 colon.
The subject of assay [3] is LOX IMVI melanoma.
Assay [4] concerns MALME-3M melanoma.
Assay [5] concerns OVCAR-3 ovarian.
The subject of assay [6] is UACC-62 melanoma.
For assay [7], the system named is UO-31 renal.
Assay [8] deals with SK-MEL-5 melanoma.

As for `COC(=O)/C(=N\Nc1nnc(C)n1N)C(C#N)c1ccc(Cl)cc1` (centres undefined), the TGI in assay [1], in assay [2], in assay [3], in assay [4], in assay [5] and in assay [6] was over 100 µM each time. The molecule also came in with a TGI in assay [7] of over 100 µM.
For `COc1ccccc1CCc1cc(OC)c(OC)c(OC)c1`, the TGI in assay [1] is over 100 µM; in assay [2], over 100 µM; in assay [3], over 100 µM; in assay [4] it was over 100 µM; in assay [5] it was over 100 µM; in assay [8] it was 42.7 µM. The TGI in assay [6] was over 100 µM; in assay [7] it was 61.3 µM.
As to `CC(C)C(NC(=O)OC(C)(C)C)C(=O)N(C)C(Cc1ccccc1)C(=O)N(C)C(C(=O)O)C(C)C` (stereo not drawn) (Boc-Val-[NMeF]-[NMeV]-OH; configuration not given here), the TGI in assay [2], in assay [3], in assay [4], in assay [5], in assay [8] and in assay [6] was over 100 µM throughout. For the same molecule, the TGI in assay [7] is over 100 µM.
Turning to `CCOc1ccccc1N=Nc1ccc2oc(=O)c(C(=O)Nc3cccc(C)c3)cc2c1`, the TGI was over 100 µM in assay [1]; 51.7 µM in assay [2]; 61.6 µM in assay [3]; over 100 µM in assay [4]; 62.4 µM in assay [5]; 32.8 µM in assay [8]. In addition, the TGI in assay [6] and in assay [7] was over 100 µM throughout.
On to `CS/C(N)=N\NC(=O)CCC(=O)Nc1ccccc1C(F)(F)F`, for which the TGI in assay [1], in assay [2], in assay [3], in assay [4], in assay [5] and in assay [8] was over 100 µM each time. Also, the TGI in assay [6] and in assay [7] was over 100 µM in each case.
Turning to `COc1cc(C(C)O)c[n+](CCc2c[nH]c3ccccc23)c1` (centres undefined), the TGI in assay [1], in assay [2], in assay [3], in assay [4], in assay [5] and in assay [8] was over 100 µM each time. In addition, the TGI in assay [6] and in assay [7] was over 100 µM each time.
With `COc1cc(C=C2C(=O)NC(=O)NC2=O)cc(OC)c1OC`, the TGI in assay [2], in assay [3], in assay [4], in assay [5], in assay [8] and in assay [6] was over 100 µM each time. For the same molecule, the TGI in assay [7] is over 100 µM.
For `CC1CC[C@]2(C(=O)O)CCC3(C)C(=CC(=O)C4[C@@]5(C)CCC(=O)C(C)(C)C5CC[C@]43C)[C@@H]2[C@H]1C` (some centres undefined), the TGI is over 100 µM in assay [1]; 43 µM in assay [2]; 42.8 µM in assay [3]; 80.3 µM in assay [4]; 44 µM in assay [5]; over 100 µM in assay [8]. The TGI was 30.6 µM in assay [6] and 38.1 µM in assay [7].
In the case of `COC1(OC)C2(Cl)C(Cl)=C(Cl)C1(Cl)C1C=CC=CC12` (centres undefined), the TGI in assay [2], in assay [3], in assay [4], in assay [5], in assay [8] and in assay [6] was over 100 µM in each case. In assay [7], this molecule gave a TGI of over 100 µM.
Take `CC1(C)C(=O)N(CCCCCCN2C(=O)C(C)(C)c3ccccc32)c2ccccc21`: the TGI is over 100 µM in assay [1]; 42.4 µM in assay [2]; 43.5 µM in assay [3]; 75.8 µM in assay [4]; 77.8 µM in assay [5]; 33.5 µM in assay [8]. The TGI in assay [6] amounted to 79.8 µM; in assay [7], 92.6 µM.
For the molecule `Cc1ccn2c(c1)nc1nc3ccccc3nc12`, the TGI in assay [3], in assay [5], in assay [8], in assay [6] and in assay [7] was over 100 µM in each case.
On to `CCC[CH2][Sn]1([CH2]CCC)[O]CC(CN2CCCC2)[O]1` (centres undefined), for which the GI50 was 28.5 µM in assay [1]; 16.9 µM in assay [2]; 12.3 µM in assay [3]; 4.59 µM in assay [4]; 13 µM in assay [5]; 17.9 µM in assay [8]. The results for the GI50 in assay [6] and in assay [7] were 13.6 µM and 17 µM, respectively. Further, the TGI is 46.9 µM in assay [1]; 30.6 µM in assay [2]; 26.8 µM in assay [3]; 17.4 µM in assay [4]; 25.7 µM in assay [5]; 33.4 µM in assay [8]. In addition, the TGI was found to be 30.5 µM in assay [6] and 31.3 µM in assay [7].
For the molecule `CC1(C)SCc2nc3ncccc3n21`, the TGI in assay [1], in assay [3], in assay [4], in assay [5], in assay [8] and in assay [6] was over 100 µM each time. In assay [7], this molecule registered a TGI of over 100 µM.
`Cc1cccc(NC(=O)C(=O)C(C(=O)c2ccc3ccccc3c2)C2OC(=O)c3ccccc32)c1C` (centres undefined): the TGI in assay [1] was determined as 24.2 µM; in assay [2], 22.2 µM; in assay [3], 30.4 µM; in assay [4], 21.7 µM; in assay [5], 50.1 µM; in assay [8], 25.9 µM. Moreover, the figures for the TGI in assay [6] and in assay [7] were 22.5 µM and 35.7 µM, respectively.
On to `Cc1ccc(C2=C(c3ccccc3)C(Br)(c3ccc(C)cc3)C(c3ccccc3)=C2c2ccc(C)cc2)cc1`, for which the TGI in assay [1], in assay [2], in assay [3], in assay [4], in assay [5] and in assay [8] was over 100 µM in each case. For the same molecule, in assay [6], the TGI was over 100 µM.
As for `COc1cc2c(cc1OC)C(CC(=O)NN=C(C)C)NCC2` (centres undefined), the TGI in assay [1], in assay [2], in assay [3], in assay [4], in assay [5] and in assay [8] was over 100 µM throughout. For the same molecule, the TGI in assay [6] and in assay [7] was over 100 µM in each case.
On to `C1=CC2SSSC2C1` (centres undefined), for which the TGI in assay [2], in assay [3], in assay [4], in assay [5], in assay [8] and in assay [6] was over 100 µM each time. The molecule further returned a TGI in assay [7] of over 100 µM.
As to `O=C1CCN2C(=O)CCN12`, the TGI in assay [1], in assay [2], in assay [4], in assay [5], in assay [6] and in assay [7] was over 100 µM in each case.
For the molecule `Cc1cccc(NC(=O)/C(=N\NC(C)(C)C)C2NC(=S)NC2=O)c1C` (centres undefined), the TGI in assay [1], in assay [2], in assay [4], in assay [5], in assay [8] and in assay [6] was over 100 µM throughout. Besides, in assay [7], the TGI was over 100 µM.
With `NC(N)=N/N=C(\c1nc2ccc([N+](=O)[O-])cc2[nH]c1=O)C(O)c1ccc([N+](=O)[O-])cc1` (centres undefined), the TGI in assay [2], in assay [3], in assay [4], in assay [5], in assay [8] and in assay [6] was over 100 µM each time. In assay [7], this molecule displayed a TGI of over 100 µM.
Regarding `CC(C)(C)c1ccc2c(c1)S(=O)(=O)Nc1ccccc1NS(=O)(=O)c1cc(C(C)(C)C)ccc1OCCOCCOCCO2`, the TGI in assay [1] was over 100 µM; in assay [2], over 100 µM; in assay [3] it was over 100 µM; in assay [4] it was 97 µM; in assay [5], over 100 µM; in assay [8], over 100 µM. The TGI in assay [6] and in assay [7] was over 100 µM each time.
On to `c1ccc(CNn2nnc3ccccc32)cc1`, for which the TGI in assay [3], in assay [4], in assay [5], in assay [8], in assay [6] and in assay [7] was over 100 µM throughout.
Take `NCCCCN(CCCN)/[N+]([O-])=N\O`: the TGI in assay [2], in assay [4], in assay [5], in assay [8], in assay [6] and in assay [7] was over 100 µM in each case.
In the case of `O=C1OC(c2ccccc2)=N/C1=C\c1cccc2ccccc12`, the TGI in assay [1], in assay [2], in assay [3], in assay [4], in assay [5] and in assay [8] was over 100 µM each time. The TGI in assay [6] and in assay [7] was over 100 µM throughout.
For the molecule `O=C(Cc1ccccc1)NN1C(=O)C(Cl)C1c1cc(Br)ccc1O` (centres undefined), the TGI in assay [2] is over 100 µM; in assay [3], over 100 µM; in assay [4] it was over 100 µM; in assay [5], over 100 µM; in assay [8] it was over 100 µM; in assay [6], 30.7 µM. In addition, the TGI in assay [7] came to 46.8 µM.
For the molecule `Nn1c(=O)n(Cc2ccccc2)n(-c2ccccc2)c1=O`, the TGI in assay [1], in assay [2], in assay [3], in assay [4], in assay [5] and in assay [8] was over 100 µM throughout. Besides, the TGI in assay [6] and in assay [7] was over 100 µM in each case.
For the molecule `C[C@@H]1CC(=O)C2CCCC1C2=O` (some centres undefined), the TGI in assay [1], in assay [2], in assay [3], in assay [4], in assay [5] and in assay [8] was over 100 µM throughout. Further, the TGI in assay [6] and in assay [7] was over 100 µM throughout.
As for `CCOc1ccccc1NC(=O)CC(C(=O)OC)C(=O)C(=O)OC` (centres undefined), the TGI in assay [1], in assay [2], in assay [3], in assay [4], in assay [5] and in assay [8] was over 100 µM in each case. The TGI in assay [6] and in assay [7] was over 100 µM throughout.
Turning to `COC(=O)C1=C(C)N(NC(=O)OC(C)(C)C)C(=O)C1=P(c1ccccc1)(c1ccccc1)c1ccccc1`, the TGI in assay [1], in assay [2], in assay [3], in assay [4], in assay [5] and in assay [8] was over 100 µM throughout. Besides, the TGI in assay [6] and in assay [7] was over 100 µM in each case.
Turning to `COc1ccc(C(=O)C(C(=O)CCC(=O)Nc2cccc(Cl)c2)c2ccc(OC)cc2)cc1` (centres undefined), the TGI in assay [1], in assay [2], in assay [4], in assay [5], in assay [8] and in assay [6] was over 100 µM in each case. In assay [7], this molecule gave a TGI of over 100 µM.
Regarding `CC(C)C(Nc1c2ccccc2nc2ccccc12)C(=O)O` (centres undefined), the TGI in assay [2], in assay [3], in assay [4], in assay [5], in assay [6] and in assay [7] was over 100 µM throughout.
On to `Cc1nc(N)sc1C(=O)/C=C\c1ccc2c(c1)OCO2`, for which the TGI in assay [1], in assay [2], in assay [3], in assay [4], in assay [5] and in assay [8] was over 100 µM each time. The TGI in assay [6] and in assay [7] was over 100 µM throughout.
Consider `Cc1cc(Cl)ccc1N=C1NC(=O)C(CC(=O)Nc2ccc([N+](=O)[O-])cc2[N+](=O)[O-])S1` (centres undefined), for which the TGI is 51.5 µM in assay [1]; over 100 µM in assay [3]; 73.2 µM in assay [4]; 73.8 µM in assay [5]; 31.1 µM in assay [8]; 64.7 µM in assay [6]. The molecule further yielded a TGI in assay [7] of 42.6 µM.
